Results filed as inconclusive are left out.
Test system: nude mice, LX-1 lung xenograft intrarenal, tumor weight T/C
Assay: NCI In Vivo Anticancer Drug Screen. Data for tumor model Human Lung LX-1 Xenograft (intrarenal inoculation) in NU/NU Swiss (nude) mice
Settings: endpoint: mean tumor weight change, higher = larger tumour
In short: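 Activity was scored by measuring tumors in treated animals and in vehicle controls, then reporting the treated result as a fraction of the control result.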

[1] = dose: 150.0 mg/kg/injection, schedule: Q04DX003 (sc), vehicle: saline with Tween-80
[2] = dose: 300.0 mg/kg/injection, schedule: Q04DX003 (sc), vehicle: saline with Tween-80
[3] = dose: 1200.0 mg/kg/injection, schedule: Q04DX003 (sc), vehicle: saline with Tween-80
[4] = dose: 75.0 mg/kg/injection, schedule: Q04DX003 (sc), vehicle: saline with Tween-80
[5] = dose: 600.0 mg/kg/injection, schedule: Q04DX003 (sc), vehicle: saline with Tween-80
[6] = dose: 4.0 mg/kg/injection, schedule: Q04DX003 (ip), vehicle: saline

Compound: COc1ccc(-c2csc(=[N+]3CCCCC3)s2)cc1
- T/C (dose: 1.56 mg/kg/injection, schedule: Q04DX003 (sc), vehicle: water): 91 % of control
- T/C (dose: 3.12 mg/kg/injection, schedule: Q04DX003 (sc), vehicle: water): 84 % of control
- T/C (dose: 6.25 mg/kg/injection, schedule: Q04DX003 (sc), vehicle: water): 72 % of control
- T/C (dose: 12.5 mg/kg/injection, schedule: Q04DX003 (sc), vehicle: water): 80 % of control

Compound: C[C@]12CC[C@H](O)CC1=CC[C@@H]1[C@@H]2CC[C@]2(C)C(=O)CC[C@@H]12
- T/C [1]: 116 % of control
- T/C [2]: 115 % of control
- T/C [3]: 107 % of control

Compound: O=C1CC2(C(=O)N1CN1CCCCC1)c1ccccc1-c1ccccc12
- T/C (dose: 200.0 mg/kg/injection, schedule: Q04DX003 (sc), vehicle: Klucel (hydroxypropylcellulose) (HPC)): 224 % of control
- T/C (dose: 400.0 mg/kg/injection, schedule: Q04DX003 (sc), vehicle: Klucel (hydroxypropylcellulose) (HPC)): 170 % of control

Compound: Oc1cc2ccccc2c(-c2c(O)c(O)cc3ccccc23)c1O
- T/C [4]: 85 % of control
- T/C [1]: 108 % of control
- T/C [2]: 42 % of control
- T/C [5]: 52 % of control

Compound: N=C(N)SCc1cccc2c(=O)cc(-c3ccccc3)oc12
- T/C (dose: 300.0 mg/kg/injection, schedule: Q04DX003 (sc), vehicle: suspension in saline): 51 % of control
- T/C (dose: 600.0 mg/kg/injection, schedule: Q04DX003 (sc), vehicle: suspension in saline): 39 % of control
- T/C (dose: 1200.0 mg/kg/injection, schedule: Q04DX003 (sc), vehicle: suspension in saline): 63 % of control

Compound: CCCCCCCCCCCCCCCCP(=O)(OCCOCCCCCC)OCCOCCCCCC
- T/C (dose: 75.0 mg/kg/injection, schedule: Q04DX003 (sc), vehicle: saline): 114 % of control
- T/C (dose: 150.0 mg/kg/injection, schedule: Q04DX003 (sc), vehicle: saline): 91 % of control
- T/C (dose: 300.0 mg/kg/injection, schedule: Q04DX003 (sc), vehicle: saline): 92 % of control

Compound: CCCCCCCCCCCCCCCCCC(=O)Nc1ccn(C2OC(CO)C(O)C2O)c(=O)n1 (stereo not drawn)
- T/C [4]: 115 % of control
- T/C [1]: 41 % of control
- T/C [2]: 38 % of control
- T/C [5]: 30 % of control

Compound: CC1CC(C)CC(C)C(O)/C(C#N)=C/C=C/CC(C2CCCC2C(=O)O)OC(=O)CC(O)C(C)C1 (stereo not drawn)
- T/C (dose: 6.0 mg/kg/injection, schedule: Q04DX003 (sc), vehicle: Klucel (hydroxypropylcellulose) (HPC)): 117 % of control
- T/C (dose: 12.0 mg/kg/injection, schedule: Q04DX003 (sc), vehicle: Klucel (hydroxypropylcellulose) (HPC)): 58 % of control
- T/C (dose: 24.0 mg/kg/injection, schedule: Q04DX003 (sc), vehicle: Klucel (hydroxypropylcellulose) (HPC)): 48 % of control

Compound: O=C(O)CSc1c(Cl)c(=O)oc2ccc(Cl)cc12
- T/C (dose: 150.0 mg/kg/injection, schedule: Q04DX003 (sc), vehicle: Klucel (hydroxypropylcellulose) (HPC)): 52 % of control
- T/C (dose: 300.0 mg/kg/injection, schedule: Q04DX003 (sc), vehicle: Klucel (hydroxypropylcellulose) (HPC)): 70 % of control
- T/C (dose: 600.0 mg/kg/injection, schedule: Q04DX003 (sc), vehicle: Klucel (hydroxypropylcellulose) (HPC)): 82 % of control
- T/C (dose: 1200.0 mg/kg/injection, schedule: Q04DX003 (sc), vehicle: Klucel (hydroxypropylcellulose) (HPC)): 165 % of control

Compound: COc1cc2c(c(OC)c1OC)-c1ccc(OC)c(=O)cc1[C@@H](NC(C)=O)CC2
- T/C (dose: 0.25 mg/kg/injection, schedule: Q01DX010 (sc), vehicle: saline): 87 % of control
- T/C (dose: 0.5 mg/kg/injection, schedule: Q01DX010 (sc), vehicle: saline): 50 % of control

Compound: N=[N+]=CC(=O)CCC(NC(=O)C(CCC(=O)C=[N+]=N)NC(=O)CCC(N)C(=O)O)C(=O)O (stereo not drawn)
- T/C (dose: 1.6 mg/kg/injection, schedule: Q04DX003 (sc), vehicle: water): 119 % of control
- T/C (dose: 3.2 mg/kg/injection, schedule: Q04DX003 (sc), vehicle: water): 86 % of control
- T/C (dose: 6.4 mg/kg/injection, schedule: Q04DX003 (sc), vehicle: water): 119 % of control
- T/C (dose: 12.8 mg/kg/injection, schedule: Q04DX003 (sc), vehicle: water): 91 % of control

Compound: Nc1nc(N)c2cc(S(=O)(=O)c3ccccc3)ccc2n1
- T/C [1]: 116 % of control
- T/C [2]: 77 % of control
- T/C [5]: 87 % of control
- T/C [3]: 95 % of control

Compound: CSC1SCC2C(=O)N(C)C(C(C)C)C(=O)OCC(NC(=O)c3cnc4ccccc4n3)C(=O)NC(C)C(=O)N(C)C1C(=O)N(C)C(C(C)C)C(=O)OCC(NC(=O)c1cnc3ccccc3n1)C(=O)NC(C)C(=O)N2C (stereo not drawn)
- T/C (dose: 15.0 micrograms/kg/injection, schedule: Q01DX010 (sc), vehicle: saline): 97 % of control
- T/C (dose: 30.0 micrograms/kg/injection, schedule: Q01DX010 (sc), vehicle: saline): 71 % of control
- T/C (dose: 60.0 micrograms/kg/injection, schedule: Q01DX010 (sc), vehicle: saline): 48 % of control
- T/C (dose: 120.0 micrograms/kg/injection, schedule: Q01DX010 (sc), vehicle: saline): 36 % of control
- T/C (dose: 240.0 micrograms/kg/injection, schedule: Q01DX010 (sc), vehicle: saline): 65 % of control

Compound: CCN(CC)CCC(=O)c1ccccc1
- T/C [1]: 81 % of control

Compound: CC(=O)OCC1OC(n2cc(CBr)nn2)C(OC(C)=O)C(OC(C)=O)C1OC(C)=O (stereo not drawn)
- T/C (dose: 50.0 mg/kg/injection, schedule: Q01DX010 (sc), vehicle: saline with Tween-80): 177 % of control
- T/C (dose: 100.0 mg/kg/injection, schedule: Q01DX010 (sc), vehicle: saline with Tween-80): 101 % of control
- T/C (dose: 400.0 mg/kg/injection, schedule: Q01DX010 (sc), vehicle: saline with Tween-80): 46 % of control

Compound: O=C1C(NCC(O)CO)=C(N2CC2)C(=O)C(NCC(O)CO)=C1N1CC1 (stereo not drawn)
- T/C [6]: 102 % of control
- T/C (dose: 8.0 mg/kg/injection, schedule: Q04DX003 (ip), vehicle: saline): 84 % of control
- T/C (dose: 16.0 mg/kg/injection, schedule: Q04DX003 (ip), vehicle: saline): 61 % of control
- T/C (dose: 32.0 mg/kg/injection, schedule: Q04DX003 (ip), vehicle: saline): 50 % of control

Compound: Nc1cc(Cl)c2[nH]cnc2n1
- T/C (dose: 200.0 mg/kg/injection, schedule: Q04DX003 (sc), vehicle: water): 121 % of control
- T/C (dose: 400.0 mg/kg/injection, schedule: Q04DX003 (sc), vehicle: water): 94 % of control

Compound: CCN(CC)CCCNc1nccc2c(C)c3[nH]c4ccncc4c3cc12
- T/C (dose: 5.0 mg/kg/injection, schedule: Q01DX010 (sc), vehicle: other): 59 % of control
- T/C (dose: 10.0 mg/kg/injection, schedule: Q01DX010 (sc), vehicle: other): 49 % of control

Compound: CC(=O)CC(C)=O.CC(=O)CC(C)=O.O=N[O-].O=N[O-].[Co]
- T/C [4]: 114 % of control

Compound: COCCCNC1=C(C#N)C(=O)NC(c2cccc([N+](=O)[O-])c2)S1 (stereo not drawn)
- T/C [2]: 109 % of control
- T/C [5]: 78 % of control
- T/C [3]: 124 % of control
- T/C (dose: 2400.0 mg/kg/injection, schedule: Q04DX003 (sc), vehicle: saline with Tween-80): 68 % of control

Compound: O=[Te]=O
- T/C (dose: 12.5 mg/kg/injection, schedule: Q04DX003 (sc), vehicle: suspension in saline): 150 % of control

Compound: N#C[C@H](OC1OC(COC2OC(CO)C(O)C(O)C2O)C(O)C(O)C1O)c1ccccc1 (stereo partly drawn)
- T/C (dose: 900.0 mg/kg/injection, schedule: Q04DX003 (sc), vehicle: suspension in saline): 82 % of control
- T/C (dose: 1800.0 mg/kg/injection, schedule: Q04DX003 (sc), vehicle: suspension in saline): 123 % of control

Compound: O=C1C(NCCO)=C(N2CC2)C(=O)C(NCCO)=C1N1CC1
- T/C (dose: 0.5 mg/kg/injection, schedule: Q04DX003 (ip), vehicle: saline): 117 % of control
- T/C (dose: 1.5 mg/kg/injection, schedule: Q04DX003 (sc), vehicle: suspension in saline): 203 % of control
- T/C (dose: 2.0 mg/kg/injection, schedule: Q04DX003 (ip), vehicle: saline): 61 % of control
- T/C [6]: 77 % of control

Compound: CC1(C)COCN1COCCOCN1COCC1(C)C
- T/C (dose: 200.0 mg/kg/injection, schedule: Q04DX003 (sc), vehicle: saline): 169 % of control
- T/C (dose: 400.0 mg/kg/injection, schedule: Q04DX003 (sc), vehicle: saline): 191 % of control

Compound: C/C(=N\NC(N)=O)c1cccc(/C(C)=N/NC(N)=O)n1
- T/C (dose: 100.0 mg/kg/injection, schedule: Q04DX003 (sc), vehicle: saline with Tween-80): 83 % of control
- T/C (dose: 200.0 mg/kg/injection, schedule: Q04DX003 (sc), vehicle: saline with Tween-80): 54 % of control
- T/C (dose: 400.0 mg/kg/injection, schedule: Q04DX003 (sc), vehicle: saline with Tween-80): 71 % of control
- T/C (dose: 800.0 mg/kg/injection, schedule: Q04DX003 (sc), vehicle: saline with Tween-80): 89 % of control

Compound: CCc1ncnc2cc(OCC3CO3)c(OC)cc12 (stereo not drawn)
- T/C (dose: 25.0 mg/kg/injection, schedule: Q04DX003 (sc), vehicle: suspension in saline): 53 % of control
- T/C (dose: 50.0 mg/kg/injection, schedule: Q04DX003 (sc), vehicle: suspension in saline): 64 % of control
- T/C (dose: 200.0 mg/kg/injection, schedule: Q04DX003 (sc), vehicle: suspension in saline): 24 % of control
